Data set [1] is described as follows: Inhibition of linoleic acid peroxidation (Fe/ascorbic acid; TBA/MDA). The settings on record: 25 mM (mixture: 25 mM each), linoleic acid 0.25 mg/ml; for MDA per mg of linoleic acid: control 7.95. The data set is classed as biochemical. Here is the method: oxidation substrate: linoleic acid (0.25 mg/ml), free radicals generating system: Fe/ascorbic acid detection: thiobarbituric acid (TBA)/malondialdehyde (MDA)

The nature of data set [2]: Inhibition of phosphatidylcholine liposome peroxidation (Fe/ascorbic acid; TBA/MDA). Particulars: for MDA per mg of phospholipids: control 4.4.
Description: oxidation substrate: phosphatidylcholine liposomes
free radicals generating system : Fe/ascorbic acid detection: thiobarbituric acid (TBA)/malondialdehyde (MDA)
Data set [3] in a line: Inhibition of deoxyribose oxidation (superoxide from xanthine oxidase/hypoxanthine; TBA/MDA detection). The data set is classed as biochemical. Particulars: 10 mM. The text has this: Several in vitro tests have been carried out in order to reveal the evoked different antioxidant properties.
Experimental procedure described by J. M. C. Gutteridge in Biochemistry Journal, vol. 224 (1984), p. 761-767: oxidation substrate: deoxyribose
Superoxide anions production system: xanthine oxidase/hypoxanthine detection: thiobarbituric acid/malondialdehyde (MDA)

Data set [4] can be described thus: "Peroxidase" type activity on liposome model: reduction of phosphatidylcholine hydroperoxides (PC-OOH). The data set is classed as biochemical. Here is the method: The "peroxidase" type activity also has been evaluated on a "liposome" model. The phosphatidylcholine hydroperoxides (PC-OOH) are prepared according to a similar procedure to the one already described for the linoleic acid monoperoxide.
The peroxide species reduction is followed by dosing the remaining peroxides according to the method laid down by Hicks M and Gebicki J. M.--Anal. Biochem, vol 99, (1979), p. 249-253.

The test system of data set [5] is gingival and buccal mucosa. The data set is described as follows: Repairing activity on the mucosa in stomatitis gingivitis. The data set is classed as in vivo, patients. The settings on record: aqueous gel 0.28%. The text has this: We have been able to study this action on stomatitis gingivitis of various origin (dental prothesis badly adapted, the taking by mistake of a corrosive liquid, and colbaltotherapy of the oropharyngeal aera.
In all the cases, the causes of deterioration of the gingival and buccal mucosa have been stopped. Over and above the classical treatments that were adapted and systematically given, was given to 50% of the patients, an aqueous orange flavour gel containing 0.28% of N-acetyl-3-phenyl-3-aminopropionyl-histamine.

Another data set deals with cataract. The data set is described as follows: Cataract patients: modification of the visual acuity at the end of 24 months. The data set is classed as in vivo. Particulars: 1% in isotonic saline, only one daily local dose. The text has this:
This example concerns the utilization of the β-alanyl-histamine to treat patients affected by cataract.
The study has been designed for a prospective evaluation of the modifications of the lens opacity in patients effected by cataract. All the patients have undergone an initial ophtalmic examination. It involved the making of the medical historical record of the patient, a measurement of the visual acuity at a maximum correction, direct or indirect ophtalmoscopies, an evaluation of the opacities with the slit lamp, a clinical grading of the lens after maximal mydriasis, a classification according to the cataract type, and lens pictures by retroillumination. Moreover, samples of blood have been taken at the beginning, then in follow-up for chemical analysis.
The general view has allowed to establish the initial state of patients before the treatment (definition of "base line").
Follow-up of ophtalmic examinations were carried out every two weeks for two months, then every month. They included maximum visual acuity after correction, direct or indirect ophtalmoscopies, a slit lamp examination, and after a maximum dilation of the pupil (excluding patients with primary open-angle glaucoma), a clinical lens grading, a classification of the cataract. Pictures also have been taken on lens observed by retroillumination or with the slit lamp.
In this study, differents groups have been determined, to be seen:
A group reference 1, with non-treated patients (5 patients, 7 eyes) […]
A group 3, has been submitted to the same treatment than the group 2, stimulated by an "attack type of treatment" during the first two weeks: 2 subcon-junctival junctival injections twice a week of 0.10 to 0.15 ml of the saline defined for the group 2 (3 patients, 4 eyes).
A group 4, which was given a local dose by way of an eye drop of isotonic saline twice a day (5 patients 7 eyes), the group 4 being like the group 1, a reference group.
Following the protocol described above, we determine the values of the optic density of the lens according to its opacity as well as the visual acuity, and the whole for 24 months. Considering these two parameters, we obtain tables giving results concerning the modification of the visual acuity at the end of 24 months in Tables 1 and 2, and the results concerning the modification of the visual opacity at the end of 24 months in Tables 3 and 4.

Data set [6] is described as follows: Protection of micro seaweed oil against oxidation (malondialdehyde dosage, one month). The settings on record: 20 mmol per L oil. From the text:
The pseudo-dipeptides products also can be used to protect cosmetic oils easily oxidizable, rich in unsaturated fatty acids formulated in cosmetic or dietetic.
It has been necessary to add 15 to 25 mmol of pseudo-dipeptides products of the invention per liter of oil according to the following formulation: […]
20 mmol of acetylated b-alanyl-histamine oil extracted from micro seaweed cultured in sea water very rich in unsaturated fatty acids, including EPA qs for 1L.
We have compared the ageing of this protected oil to the non-protected oil at the end of a month by the malondialdehyde dosage.

The nature of data set [7]: "Peroxidase" activity: reduction of 13-monoperoxide of linoleic acid (L-OOH). The data set is classed as biochemical. The settings on record: 10 mM; 13-monoperoxide linoleic acid 0.5 mM; control 36.7. Here is the method:
Lipid peroxides evolution is monitored with the help of 3 methods:
1°) spectrophotometric measure at 233 nm
(O. S. Privett, C. Nickell, W. O. Lundberg, and P. D. Bayer, dans J.Am.Oil Chem. Soc, Vol 32 (1955), P.505-511
2°) Iodometric dosage: M.Hicks' and J. M. Gebicki's method, Analytical Biochemistry, vol 99 (1979), p 249-253.
3°) Chromatography on silica gel plate (hexane/ether/acetic acid 8/7/0.1).
(a) 13-monoperoxide linoleic acid 0.5 mM without reducing agent (preparation according to H. W. Gardner's method Lipids, Vol.10 (1975), p. 248-252).

Data set [8] is described as follows: Tests with peroxidized compounds: reducing behaviour. The data set is classed as biochemical.
For a further data set, the system named is gastric ulcer. The settings on record: rats with limited food-intake-time; cited from earlier work.
Another data set concerns murine splenocytes. In words: Immunostimulating activity in vitro on murine splenocytes (tritiated thymidine incorporation). The data set is classed as cell-based. The settings on record: average of three measures. The text has this: The procedure is extracted from: J. Kunert-Radek, H. Stepien, K. Lyson and M. Pawlikowski--"Effects of calcium channel modulators on the proliferation of mouse spleen lymphocytes in vitro"--Agents and Actions, vol. 29, Nos 3-4 (1990), p. 254-258.
The cell proliferation is followed by the measurement of the extent of incorporation of tritriated thymidine in the cells, expressed in numbers of desintegrations per mn, deducted from the background.
The results obtained with an immunostimulator of reference, concanavaline A, are given as a comparison.
The immunostimulating effect is expressed by an Index of Stimulation (IS) [formula]
The given values are corresponding to the average of three measures.
In general terms: Uptake of a labelled nucleoside into DNA is a usual measure of proliferation.

Results on ten compounds are retold here after patent US5792784A, “Coupling product obtained from histamine and an amino acid” (Babizhayev; Marc, priority 1993, dated 1998).

What is called % inhibition is the drop in the measured response relative to a control, in per cent. As to `NCCc1c[nH]cn1` [Histamine, histamine], in data set [1], the “% inhibition” value is on record as -32% and the “MDA per mg of linoleic acid” value is reported as 10.15 mol MDA per mg of linoleic aci. Further, in [2] (1 M (so in the source)), the “% inhibition” value is -45% and the “MDA per mg of phospholipids” value was 6.4 mol MDA per mg of phospholipid. In data set [2] (10 M (so in the source)), the “% inhibition” value is given as -63% and the “MDA per mg of phospholipids” value is 6.8 mol MDA per mg of phospholipid.
`N[C@@H](Cc1c[nH]cn1)C(=O)O` [Histidine]: in [2] (1 mM), the “% inhibition” value was -48% and the “MDA per mg of phospholipids” value is 6.6 mol MDA per mg of phospholipid.
As to `c1c[nH]cn1` [Imidazole], in [1], the “% inhibition” value came to 11% and the “MDA per mg of linoleic acid” value is given as 6.95 mol MDA per mg of linoleic aci.
For the compound `NCCC(=O)N[C@@H](Cc1c[nH]cn1)C(=O)O` [L-carnosine, β-alanyl-histidine, reference compound], the “% inhibition of deoxyribose oxidation” value in [3] was determined as 37%. For the same compound, in data set [1], the “% inhibition” value worked out at 59% and the “MDA per mg of linoleic acid” value is recorded as 3.24 mol MDA per mg of linoleic aci. The “number of moles of PC-OOH reduced/initial number of moles of PC/hour” value in data set [4] (10 mM) is recorded as 3.16 × 10^-3 moles of PC-OOH reduced/initia. For the same compound, the “number of moles of PC-OOH reduced/initial number of moles of PC/hour” value in [4] (25 mM) is 3.65 × 10^-3 moles of PC-OOH reduced/initia. Further, in data set [2] (10 mM), the “MDA per mg of phospholipids” value is reported as 2.0 mol MDA per mg of phospholipid.
For `CC(=O)NC(CC(=O)NCCc1c[nH]cn1)c1ccccc1` (stereo not shown) [N-acetyl-3-phenyl-3-aminopropionyl-histamine], the tolerance entry in data set [5] is on record as “excellent tolerance”.
As for `CC(=O)NCCC(=O)NCCc1c[nH]cn1` [N-acetyl-β-alanyl-histamine], the “results of eye drop treatment versus those previously obtained” value in the data set with cataract is reported as “identical to the ones previously obtained”. Besides, the “protection against oxidation (malondialdehyde dosage)” value in data set [6] is recorded as “proves well the activity of the acetylated-β-alanyl-histamine in the protection against oxidation”.
Regarding `[BH4-].[Na+]` [NaBH4, sodium borohydride, reference compound], the “"peroxidase" activity” value in [7] was 312.5 mol of L-OOH reduced/hour. Moreover, the “reducing behaviour towards peroxidized compounds” value in data set [8] is recorded as “inhibits in an identical way the reaction of degradation”.
For the compound `NCCC(=O)O` [β-alanine], in data set [1], the “% inhibition” value came out at 0% and the “MDA per mg of linoleic acid” value was 7.91 mol MDA per mg of linoleic aci.
On to “N- (3-aminopropionyl)--L-histidinato zinc [Z-103]”, for which, in the data set on gastric ulcer, the gastric ulcer treatment entry was “good results”.
For concanavaline A [reference compound], the “Index of Stimulation (IS)” value in the data set with murine splenocytes (2.5 μg/ml) is 4.8; with murine splenocytes (5 μg/ml), 25.1; with murine splenocytes (10 μg/ml), 20.5; in the data set on murine splenocytes (25 μg/ml), 12.6.
